Results as given in patent publication US20250084097A1, “MACROCYCLIC AMIDE COMPOUNDS AND APPLICATION THEREOF” (Medshine Discovery Inc., priority 2021, published 2025).
Where two headings read alike, the source gives them in different places.

Legend:
[1] = Pharmacokinetic assay of compounds in mice; format: in vivo, male ICR mice; conditions: for Vd / AUC(0-t) / half-life / C0 / bioavailability / Cmax / Tmax: male, ICR, mouse, plasma; for Vd: read-out: Apparent volume of distribution Vd; for AUC(0-t): read-out: Area under the curve AUC0-last; for half-life: read-out: Half-life T1/2 (converted); for C0: read-out: Starting concentration C0; for bioavailability: PO 10 mg/kg vs IV 3 mg/kg, read-out: Bioavailability F %; for Cmax: read-out: Peak concentration Cmax; for Tmax: read-out: Time to peak Tmax
Description: Assay purpose: 7-9-week-old male ICR mice were used as test animals. LC/MS/MS method was used to determine the drug concentration of the compound in the plasma at different times after a single intravenous injection (IV) and oral administration (PO) of the compound, to study the pharmacokinetic behavior of the compounds of the present disclosure in mice, and to evaluate their pharmacokinetic characteristics.
Formulation of drug: The compounds were formulated as solutions in the respective solvents for administration in IV (intravenous injection) and PO (oral administration) groups. The dose of each compound was 3 mg/kg for IV and 10 mg/kg for PO, and the vehicle was 10% DMSO+10% solutol+80% (10% HP-β-CD).

[2] = tested on: Ba/F3-FL-EGFR(L858R/T790M/C797S) phosphorylation; experiment: Inhibition of EGFR phosphorylation in cells, Western Blot; format: cell-based; conditions: p-EGFR, 4 h incubation, read-out: Cell half-maximal inhibition concentration IC50 Ba/F3-FL-EGFR(L858R/T790M/C797S)
Description: (§1) Autophosphorylation of EGFR can activate its intracellular kinase pathway. In this assay, EGFR phosphorylation was quantified in order to detect the inhibitory effect of compounds on Ba/F3-FL-EGFR(L858R/T790M/C797S) and Ba/F3-FL-EGFR (del19-E746-A750/T790M/C797S) phosphorylation.
(§2) The cells in the logarithmic growth phase were taken and counted with a cell counter. The cell viability rate was required to be >90%. Cells were inoculated into a sterile 6-well plate with 2×10^6 cells per well, replenished with 1640 complete medium to 1998 μL, and the 6-well plate was incubated in a constant temperature incubator at 37° C. and 5% CO2.
(§3) The 6-well plate was taken out, and the cells were normal under microscope. In an ultra-clean bench, 2 μL of each of the prepared gradient diluted 1000× stock solution was added to the 6-well plate inoculated with cells, and the 6-well plate was gently shaken to distribute the compounds evenly.
(§4) The 6-well plate was incubated statically in a constant temperature incubator at 37° C., 5% CO2 for 4 h;
(§5) After the cells were cultured statically for 4 hours, the culture medium was collected, and centrifuged at 8000 rpm for 3 minutes. The cells were collected in a 1.5 mL EP tube. The supernatant was discarded, and the total protein was extracted;
(§6) Cells from each group were collected into 1.5 ml EP tubes and a certain volume of Lysis Buffer (RIPA:protease/phosphatase inhibitor=100:1) was added (˜66 μL per 2×10^6 cells, depending on the cell amount). After adding Lysis Buffer, the EP tubes were placed on ice quickly and vortexed using a vortexer to fully lyse the cells. Be careful not to vortex for too long, and quickly place the sample tube on ice to lysis, shaking every 10 min for three times. At the end of the lysis time, the EP tubes were centrifuged at 12000 rpm for 10 min in a pre-cooled centrifuge at 4° C. After centrifugation, the supernatant was transferred to new 1.5 ml EP tubes which were labeled.
(§7) Using the BCA Protein Concentration Assay Kit, protein quantification of the sample lysis supernatant was performed according to the kit instructions. After the protein concentration was determined, the lysis supernatant with the lowest concentration was used as the reference, and the rest of the lysis supernatants were diluted to that concentration using Lysis Buffer in a volume calculated according to the BCA standard curve. To the diluted lysis supernatant, the corresponding volume of 5× loading Buffer was added. The diluted solution was heated in a metal bath at 95° C. for 10 min, then placed on ice to be cooled, and stored in a refrigerator at −20° C.
(§8) The glass plates used for making glue were cleaned, and two glass plates were aligned the bottoms, put into the bracket, and fixed with clips. The separation gel according to the 10% separation gel formula was prepared, mixed well and then added to the glass plate. The addition was stopped until the separation gel reached about ¾ of the glass plate and the glue was pressed with 75% ethanol. After 90 minutes, the separation gel was solidified. The 75% ethanol was poured out. Filter paper was used to absorb the remaining ethanol solution on the glass plate. A 5% stacking gel was prepared, mixed evenly and added to the glass plate. Then a spiking comb was inserted. After 60 minutes, the glue was made.
(§9) The gel plate was fixed in an electrophoresis tank, and the inner tank was filled with 1× electrophoresis solution, while in the outer tank the electrophoresis solution was over the metal wire. The spiking comb was removed, the protein samples of Ba/F3-FL-EGFR (L858R/T790M/C797S) and Ba/F3-FL-EGFR (del19-E746-A750/T790M/C797S) cells were sampled 25 μg, and Protein Ladder was then added. Turning on the power supply, electrophoresis with a constant voltage of 70 V lasted for 30 min, electrophoresis was continued at constant voltage 86 V for 1 h 20 min until the bromophenol blue indicator band reached the bottom and electrophoresis was stopped. […]

[3] = tested on: Ba/F3-FL-EGFR (del19-E746-A750/T790M/C797S) phosphorylation; experiment: as above; format: cell-based; conditions: p-EGFR, 4 h incubation, read-out: Cell half-maximal inhibition concentration IC50 Ba/F3-FL-EGFR (del19-E746-A750/T790M/C797S)
Description: as §1, §2, §3, §4, §5, §6, §7, §8, §9

Row | SMILES | Apparent clearance Cl ([1]; IV 3 mg/kg) [mL/min/kg] | Vd ([1]; IV 3 mg/kg) [L/kg] | AUC(0-t) ([1]; IV 3 mg/kg) [µM·h] | half-life ([1]; IV 3 mg/kg) [h] | C0 ([1]; IV 3 mg/kg) [µM] | bioavailability [1] [%] | AUC(0-t) ([1]; PO 10 mg/kg) [µM·h] | Cmax ([1]; PO 10 mg/kg) [µM] | Tmax ([1]; PO 10 mg/kg) [h] | IC50 [2] [nM] | IC50 [3] [nM]
1 | Cc1cc2cc(n1)-c1cnn(C)c1OC[C@H]1CC[C@H](C1)CN1/C(=N/C2=O)Nc2ccc(N=S(C)(C)=O)cc21 (single isomer, unassigned) [WX-027A] | 14.2 | 1 | 7.7 | 1.1 | 6.85 | 64 | 15.7 | 5.91 | 0.8 | 2.1 | 1.9
2 | Cc1cc2cc(n1)-c1cnn(C)c1OCCC[C@@H](C)CN1/C(=N/C2=O)Nc2ccc(N=S(C)(C)=O)cc21 [WX-006] | 14.6 | 1.9 | 6.54 | 3.6 | 8.14 | 83 | 18.1 | 3.59 | 1.5 | 3.4 | 0.6
3 | Cc1cc2cc(n1)-c1cnn(C)c1OCCC[C@@H](C)CN1/C(=N/C2=O)Nc2ccc(N=S3(=O)CCCC3)cc21 [WX-010 (trifluoroacetate)] | 5.7 | 1 | 16.1 | 2.8 | 8.14 | 56 | 30.1 | 4.49 | 1 | 2.3 | 0.8
4 | Cc1cc2cc(n1)-c1cnn(C)c1OCCC[C@@H](C)CN1/C(=N/C2=O)Nc2ccc(N=S3(=O)CCOCC3)cc21 [WX-013] | 4.7 | 1 | 18.9 | 3.3 | 12.1 | 34 | 21.5 | 3.94 | 1 | 2.9 | 1.3
5 | Cc1cc2cc(n1)-c1cnn(C)c1OCCC[C@@H](C)CN1/C(=N/C2=O)Nc2ccc(N=S(C)(C)=O)c(Cl)c21 [WX-019] | 8.6 | 1.6 | 10.6 | 2.5 | 5.73 | 65 | 23.2 | 3.92 | 1 |  | 
